Data: patent publication US4816447A, “Anti-viral guanine compounds” (priority 1984, dated 1989)
In brackets after ≈: the same amount, converted by molar mass. Read-outs that look alike come from different tables or passages of the source.

Tests used:
[1] = tested on: HSV-1 wild type Strain 17; assay: Drug sensitivity of HSV-1 wild type Strain 17
HSV-1 [2] = assay: Intraperitoneal HSV-1 infection in mice, oral treatment (Table VI); assay type: in vivo, HSV-1; ICR/Ha mice; settings: Human alphaherpesvirus 1; intraperitoneal infection, oral treatment; read-out: Min. Effective Dose
Herpes simplex virus = assay: Plaque inhibition, Herpes simplex virus on MRC5 cells (Table V); assay type: cell-based, Herpes simplex virus; MRC5 (human diploid lung) cells
Vaccinia = assay: microbe, parasite or virus in culture; assay type: cell-based, vaccinia; MRC5 (human diploid lung) cells; settings: Orthopoxvirus vaccinia, MRC5, read-out: ED50, concentration required for 50% plaque inhibition
HSV-2 = assay: Vaginal HSV-2 infection in mice, oral treatment (Table VI); assay type: in vivo, HSV-2; ICR/Ha mice; settings: Human alphaherpesvirus 2; vaginal infection, oral treatment; read-out: Min. Effective Dose
Recombinant 6-26 = assay: Drug sensitivity of HSV-1/HSV-2 intertypic Recombinant 6-26
Recombinant 6-19 = assay: Drug sensitivity of HSV-1/HSV-2 intertypic Recombinant 6-19
[3] = tested on: Varicella-Zoster virus, strain KMcC; assay: Plaque inhibition, Varicella Zoster virus on MRC5 cells (Table V); assay type: cell-based, Varicella-Zoster virus; MRC5 (human diploid lung) cells
[4] = tested on: Herpes simplex virus type 1; assay: Intraperitoneal Herpes simplex type 1 infection in mice, oral treatment (Table XI); assay type: in vivo, Herpes simplex type 1; ICR/Ha mice; settings: for Percent Survival: at 13 days
Text: ICR/Ha mice were infected as described in Example 36. […] These animals served as toxicity controls.

[5] = tested on: Herpes simplex virus type I (HSV-1), strain Schooler; assay: Treatment of Herpes simplex virus infection in mice, intraperitoneal HSV-1, subcutaneous treatment (Table II); assay type: in vivo, HSV-1; ICR/Ha mice; settings: for Percent Survival: at 15 days
[6] = Comparative solubilities in pH 7.2 buffer at 25°; assay type: physicochemical; settings: aqueous buffer; pH 7.2 phosphate buffer, 25°
Protocol: Comparative Solubilities in pH 7.2 Buffer at 25°
Solubilities were determined by suspending an excess amount of the compound in approximately 0.15 molar phosphate buffer (pH 7.2) and shaking overnight in a water bath at 25° to give a saturated solution. The concentration of the compound in the filtered solution was calculated on the basis of spectrophotometric measurements, i.e. comparison of the ultraviolet absorbance at the λmax for the saturated solution with the absorbance value observed for a known concentration of the compound.

[7] = tested on: Herpes simplex virus type I (HSV-1), strain Schooler; assay: Treatment of Herpes simplex virus infection in mice, repeat experiment (Table III); assay type: in vivo, HSV-1; ICR/Ha mice; settings: for Percent Survival: at 15 days
Protocol: Twenty gram ICR/Ha mice were injected intraperitoneally (ip) with 0.5 ml of a 10^-5 dilution of a stock preparation of Herpes simplex virus type I (HSV-1), strain Schooler. This virus challenge infected each animal with approximately 100 LD50. […] The placebo group was composed of 45 animals. All compounds were solubilized in physiological saline, pH 11.5.

Varicella-Zoster virus = assay: Varicella-Zoster plaque reduction assay on human MRC-5 monolayers; assay type: cell-based, Varicella-Zoster (Strain KMcC); human MRC-5 cells; settings: for minimal effective concentration: Human alphaherpesvirus 3, MRC5, Strain KMcC, plaque reduction, read-out: Minimum Effective Concentration; for comparative activity: compound of formula II vs acycloguanosine
Text: ^b Plaque reduction assay on human MRC5 cell monolayers.

[8] = tested on: human cytomegalovirus, strain AD169; assay: Plaque inhibition, cytomegalovirus on MRC5 cells (Table V); assay type: cell-based, human cytomegalovirus; MRC5 (human diploid lung) cells
[9] = tested on: guanosine monophosphate kinase and extract of HSV1-infected HeLa cells; assay type: biochemical; settings: gmp kinase, 4 h
Protocol: To the rest of the incubation mixtures were now added 0.04 units of guanosine monophosphate kinase and 20 μl of an extract of HSV1-infectedHeLa cells [The cells were infected with the virus at a multiplicity of 10 and harvested 8 hours later; they were suspended in a solution containing 0.35M KH2 PO4, pH 7.5, 0.5 mM dithiothreitol, 0.2% polyoxyethylene(9)octylphenol (Nonidet P-40), 14% glycerol at 50 mg/ml and after 30 minutes at 4° were centrifuged at […]; the supernatant liquid was the crude extract.] Incubation was continued at 30° for 4 more hours, after which samples were analyzed by HPLC and the amount of the triphosphate derivatives of each compound determined by integration of the area under the respective chromatographic peak.

Recombinant 6-30 = assay: Drug sensitivity of HSV-1/HSV-2 intertypic Recombinant 6-30
Recombinant 6-34 = assay: Drug sensitivity of HSV-1/HSV-2 intertypic Recombinant 6-34
HSV-1 [10] = assay: Corneal HSV-1 infection of rabbit eyes, topical treatment (Table VI); assay type: in vivo, HSV-1; rabbits
HSV-1 PAA ®1 = assay: microbe, parasite or virus in culture; settings: Human alphaherpesvirus 1, read-out: ED50
HSV-1 [11] = assay: In vitro activity against HSV-1 with and without added thymidine; assay type: cell-based; settings: for EC50: read-out: ED50 (the source's name)

In the case of `Nc1nc2c(ncn2COCCO)c(=O)[nH]1` [Acycloguanosine, 9-(2-hydroxyethoxymethyl)guanine, reference compound], the “Sensitivity (S) or Resistance (R)” value ([1]; HSV-1 wild type Strain 17) is reported as “S”, the minimal effective dose (HSV-1 [2]) is reported as 12.5 to 50 mg/kg/day and the EC50 (Herpes simplex virus; MRC5, read-out: ED50, concentration required for 50% plaque inhibition) is reported as 0.2 to 0.4 µg/mL (≈ 0.888 to 1.78 µM). The EC50 (Vaccinia) was > 100 µg/mL, the minimal effective dose (HSV-2) was 12.5 to 50 mg/kg/day and the “Sensitivity (S) or Resistance (R)” value (Recombinant 6-26; Recombinant 6-26) was “S”. For the same molecule, the “Sensitivity (S) or Resistance (R)” value (Recombinant 6-19; Recombinant 6-19) was “R”, the EC50 ([3]; Human alphaherpesvirus 3, MRC5, read-out: ED50, concentration required for 50% plaque inhibition) was 3 to 6 µg/mL (≈ 13.3 to 26.6 µM) and the “Avg. Survival Time” value ([4]; 3.1 mg/kg/day oral) was 6.3 days. For the same molecule, the “Percent Survival” value ([4]; 3.1 mg/kg/day oral) was 0%, the “Avg. Survival Time” value ([4]; 12.5 mg/kg/day oral) was 6.6 days and the “Percent Survival” value ([4]; 12.5 mg/kg/day oral) was 0%. The “Avg. Survival Time” value ([4]; 50 mg/kg/day oral) was 8.2 days, the “Percent Survival” value ([4]; 50 mg/kg/day oral) was 20% and the “Avg. Survival Time” value ([4]; 100 mg/kg/day oral) was 11.4 days. The “Percent Survival” value ([4]; 100 mg/kg/day oral) was 60%, the survival vs placebo ([4]; all treated groups) was “none of the acycloquanosine-treated groups showed enhanced survival” and the “extension of survival time vs placebo” value ([4]; only at 100 and 50 mg/kg daily) was “statistically significant extension of survival time”. For the same molecule, the “Avg. Survival Time” value ([5]; 3.1 mg/kg/day s.c.) was 6.4 days, the “Percent Survival” value ([5]; 3.1 mg/kg/day s.c.) was 6% and the “Avg. Survival Time” value ([5]; 12.5 mg/kg/day s.c.) was 6.2 days. For the same molecule, the “Percent Survival” value ([5]; 12.5 mg/kg/day s.c.) was 6%, the “Avg. Survival Time” value ([5]; 50 mg/kg/day s.c.) was 7.7 days and the “Percent Survival” value ([5]; 50 mg/kg/day s.c.) was 0%. For the same molecule, the “Sensitivity (S) or Resistance (R)” value (HSV-2 TS6; HSV-2 TS6) was “S”, the “sensitivity of HSV-2 Ts6” value (HSV-2 TS6) was “sensitive” and the solubility [6] was 1300 to 1500 µg/mL (≈ 5770 to 6660 µM). The “Avg. Survival Time” value ([7]; 12.5 mg/kg/day s.c.) was 7.0 days, the “Percent Survival” value ([7]; 12.5 mg/kg/day s.c.) was 6% and the “Avg. Survival Time” value ([7]; 50 mg/kg/day s.c.) was 7.8 days. The “Percent Survival” value ([7]; 50 mg/kg/day s.c.) was 0%, the “Avg. Survival Time” value ([7]; 100 mg/kg/day s.c.) was 7.8 days and the “Percent Survival” value ([7]; 100 mg/kg/day s.c.) was 10%. For the same molecule, the minimal effective concentration (Varicella-Zoster virus) was 1 to 2 µg/mL, the comparative activity (Varicella-Zoster virus) was “equally active” and the EC50 ([8]; Human betaherpesvirus 5, AD169, MRC5, read-out: ED50, concentration required for 50% plaque inhibition) was 25 µg/mL (≈ 111 µM). For the same molecule, the “converted to the triphosphate” value [9] was 31%, the “Sensitivity (S) or Resistance (R)” value (Recombinant 6-30; Recombinant 6-30) was “S” and the “Sensitivity (S) or Resistance (R)” value (Recombinant 6-34; Recombinant 6-34) was “R”. The “Min. Effective Dose” value (HSV-1 [10]; corneal infection, topical treatment) was 1.0% and the “limiting progression and resolving corneal lesions” value (HSV-1 [10]; infected rabbits) was “equally effective”.
In the case of `Nc1nc2c(ncn2COC(CO)CO)c(=O)[nH]1` [Compound of Formula II, 9-(1,3-Dihydroxy-2-propoxymethyl)guanine], the EC50 ([1]; Human alphaherpesvirus 1, read-out: ED50) is reported as 0.34 µg/mL, the EC50 (HSV-1 PAA ®1) is reported as 0.1 µg/mL and the EC50 (Herpes simplex virus; read-out: ED50, concentration required for 50% plaque inhibition, Herpes simplex virus, MRC5) is reported as 0.2 µg/mL. It also gave an EC50 (Vaccinia) of 50 to 100 µg/mL, an EC50 (Recombinant 6-26; read-out: ED50) of 0.05 µg/mL and an EC50 (Recombinant 6-19; read-out: ED50) of 0.1 µg/mL. For the same molecule, the EC50 ([3]; Human alphaherpesvirus 3, read-out: ED50, concentration required for 50% plaque inhibition, Varicella Zoster virus, MRC5) was 3 to 6 µg/mL, the “Avg. Survival Time” value ([4]; 0.2 mg/kg/day oral) was 6.8 days and the “Percent Survival” value ([4]; 0.2 mg/kg/day oral) was 0%. The “Avg. Survival Time” value ([4]; 0.8 mg/kg/day oral) was 8.5 days, the “Percent Survival” value ([4]; 0.8 mg/kg/day oral) was 20% and the “Avg. Survival Time” value ([4]; 3.1 mg/kg/day oral) was 11.7 days. The “Percent Survival” value ([4]; 3.1 mg/kg/day oral) was 50%, the “Avg. Survival Time” value ([4]; 12.5 mg/kg/day oral) was 13.9 days and the “Percent Survival” value ([4]; 12.5 mg/kg/day oral) was 80%. The “Avg. Survival Time” value ([4]; 50 mg/kg/day oral) was 16.9 days, the “Percent Survival” value ([4]; 50 mg/kg/day oral) was 100% and the “extension of survival time vs placebo” value ([4]; 50, 12.5, 3.1 and 0.8 mg/kg daily) was “statistically significant extension of survival time”. The survival vs placebo ([4]; 50 and 12.5 mg/kg groups) was “statistically significantly longer”, the “overt toxicity, final weight of test animals” value ([4]; oral, twice daily for 7 days) was “no evidence of overt toxicity” and the “relative potency to acycloguanosine” value ([4]; statistically significant) was 50.3. The “Avg. Survival Time” value ([5]; 3.1 mg/kg/day s.c.) was 12.5 days, the “Percent Survival” value ([5]; 3.1 mg/kg/day s.c.) was 53% and the “Avg. Survival Time” value ([5]; 12.5 mg/kg/day s.c.) was 14.1 days. For the same molecule, the “Percent Survival” value ([5]; 12.5 mg/kg/day s.c.) was 73%, the “Avg. Survival Time” value ([5]; 50 mg/kg/day s.c.) was 19.1 days and the “Percent Survival” value ([5]; 50 mg/kg/day s.c.) was 100%. The “sensitivity of HSV-2 Ts6” value (HSV-2 TS6) was “resistant”, the solubility [6] was 2800 µg/mL and the “Avg. Survival Time” value ([7]; 0.2 mg/kg/day s.c.) was 9.0 days. The “Percent Survival” value ([7]; 0.2 mg/kg/day s.c.) was 26%, the “Avg. Survival Time” value ([7]; 0.8 mg/kg/day s.c.) was 9.8 days and the “Percent Survival” value ([7]; 0.8 mg/kg/day s.c.) was 40%. The “Avg. Survival Time” value ([7]; 3.1 mg/kg/day s.c.) was 11.8 days, the “Percent Survival” value ([7]; 3.1 mg/kg/day s.c.) was 46% and the “Avg. Survival Time” value ([7]; 12.5 mg/kg/day s.c.) was 17.2 days. For the same molecule, the “Percent Survival” value ([7]; 12.5 mg/kg/day s.c.) was 93%, the “Avg. Survival Time” value ([7]; 50 mg/kg/day s.c.) was 19.5 days and the “Percent Survival” value ([7]; 50 mg/kg/day s.c.) was 100%. For the same molecule, the “calculated average relative potency to acycloguanosine (95% CI)” value ([7]; combined results of both mouse experiments) was 287.0, the “reduction of antiviral activity by thymidine” value (HSV-1 [11]; 20 μg thymidine/ml) was “greater than 15 fold” and the EC50 (HSV-1 [11]; Human alphaherpesvirus 1, absence of thymidine) was 0.8 to 1.6 µg/mL. For the same molecule, the EC50 (HSV-1 [11]; Human alphaherpesvirus 1, presence of thymidine (20 μg/ml)) was 25 µg/mL, the minimal effective concentration (Varicella-Zoster virus) was 1 to 2 µg/mL and the comparative activity (Varicella-Zoster virus) was “equally active”. The “more active than acyclovir” value [8] was “approximately 10 fold”, the EC50 ([8]; Human betaherpesvirus 5, AD169, read-out: ED50, concentration required for 50% plaque inhibition, Cytomegalovirus, MRC5) was 0.8 µg/mL and the “converted to the triphosphate” value [9] was 93%. For the same molecule, the EC50 (Recombinant 6-30; read-out: ED50) was 0.08 µg/mL and the EC50 (Recombinant 6-34; read-out: ED50) was 0.07 µg/mL.
